Data taken from ChEMBL document CHEMBL5052855, “Method for predicting sensitivity of cancer cell to gpx4 inhibitor” (2021).
The source made the active and inactive calls. The calls are words filed in the database; no cut-off is given here.

Tests used:
[1] = system: SK-HEP1; assay: Antitumor activity against human SK-HEP1 cells xenografted BALB/c nu mouse assessed as decrease in tumor volume at 100 mg/kg/day, po measured on the 18th day; assay type: functional, organism-based; details: time 18.0 day
[2] = Antiproliferative activity against ARID1A/1B proficient human OVISE cells after 7 days by Cell-Titer Glo assay; assay type: functional, cell-based; details: 168 h

Row | SMILES | Activity [1] | IC50 [2] [nM]
1 | Cc1onc(C(=O)N2CCN(C(c3ccc(Cl)cc3)c3ccc(Cl)cc3)CC2)c1[N+](=O)[O-] | Active | –
2 | COC(=O)c1ccc([C@H]2c3[nH]c4ccccc4c3C[C@H](C(=O)OC)N2C(=O)CCl)cc1 | – | < 3
